Assays:
[1] = system: MuSCs transplanted into tibialis anterior (TA) muscles of recipient mice; assay: Muscle stem cell transplantation, engraftment by bioluminescence imaging (BLI); assay type: in vivo, mouse; details: for BLI signal of engrafted MuSCs after secondary (notexin) injury: notexin re-injury one month after transplant
[2] = system: endogenous MuSCs in TA muscle; assay: Endogenous MuSC BLI in Pax7CreERT2;Rosa26-LSL-Luc mice after cardiotoxin injury; assay type: in vivo, mouse; details: 13 nmol three days post-cardiotoxin, BLI days 3-14
Procedure: Bioluminescence imaging: We performed bioluminescence imaging (BLI) using a Xenogen-100 system, as previously described^1,5,6. Briefly, we anesthetized mice using isofluorane inhalation and administered 120 μL D-luciferin (0.1 mmol kg^−1, reconstituted in PBS; Caliper LifeSciences) by intraperitoneal injection. We acquired BLI using a 60 s exposure at F-stop=1.0 at 5 minutes after luciferin injection. Digital images were recorded and analyzed using Living Image software (Caliper LifeSciences). We analyzed images with a consistent region-of-interest (ROI) placed over each hindlimb to calculate a bioluminescence signal. We calculated a bioluminescence signal in radiance (p s^−1 cm^−2 sr^−1) value of 10^4 to define an engraftment threshold. This radiance threshold of 10^4 is approximately equivalent to the total flux threshold in p/s reported previously. This BLI threshold corresponds to the histological detection of one or more GFP+ myofibers^1,5,6. We performed BLI imaging every week after transplantation. […]
We performed bioluminescence imaging (BLI) using a Xenogen-100 system, as previously described (24, 26, 27, 30). […] Digital images were recorded and analyzed using Living Image software (Caliper LifeSciences). We analyzed images with a consistent region-of-interest (ROI) placed over each hindlimb to calculate a bioluminescence signal. We calculated a bioluminescence signal in radiance (p s^−1 cm^−2 sr^−1) value of 10^4 to define an engraftment threshold. […]
Bioluminescent Imaging: For bioluminescence imaging (BLI), we anesthetized mice using isofluorane inhalation and administered 120 μL D-luciferin (0.1 mmol kg^−1, reconstituted in PBS; Caliper LifeSciences) by intraperitoneal injection. […] Digital images were recorded and analyzed using Living Image software (Caliper LifeSciences). We analyzed images with a consistent region-of-interest (ROI) placed over each hindlimb to calculate a bioluminescence signal. We calculated a bioluminescence signal in radiance (p s^−1 cm^−2 sr^−1) value of 10^4 to define an engraftment threshold. […]

CCCCC[C@H](O)/C=C/[C@H]1[C@H](O)CC(=O)[C@@H]1C/C=C\CCCC(=O)O [PGE2, prostaglandin E2]
regenerative capacity of MuSCs coinjected with PGE2, by BLI ([1]; 250 GFP/Luc MuSCs into injured TAs of NSG mice (Example 3)): nearly two orders of magnitude | regenerative capacity of cultured PGE2-treated young MuSCs by BLI ([1]; acute 1-day PGE2 in culture, 250 cells transplanted on day 7 into NOD-SCID mice): enhanced by an order of magnitude | BLI signal of engrafted MuSCs after secondary (notexin) injury [1]: spike in BLI signals | BLI of endogenous MuSCs after injury and PGE2/dmPGE2 [2]: in agreement with the histological data

CCCCC(C)(C)[C@H](O)/C=C/[C@H]1[C@H](O)CC(=O)[C@@H]1C/C=C\CCCC(=O)O [dmPGE2, 16,16-dimethyl prostaglandin E2]
engraftment of aged MuSCs coinjected with dmPGE2 ([1]; aged MuSCs, 250 cells, 13 nmol dmPGE2): significantly enhanced engraftment | engraftment of young MuSCs coinjected with dmPGE2 ([1]; freshly isolated MuSCs, 250 cells, 13 nmol dmPGE2): significantly enhanced engraftment | BLI signal of engrafted MuSCs after secondary (notexin) injury [1]: further increased in response to notexin injury | BLI of endogenous MuSCs after injury and PGE2/dmPGE2 [2]: in agreement with the histological data

From US11738031B2, “Compositions and methods for preventing or treating muscle conditions” (The Board of Trustees of the Leland Stanford Junior …, priority 2017, dated 2023)
